Assay results as given in patent US20260317324A1, “BIFUNCTIONAL COMPOUNDS FOR DEGRADING BRAF VIA UBIQUITIN PROTEOSOME PATHWAY” (Nurix Therapeutics, Inc., priority 2023, published 2026).

Target: T1, BRAF V600E (Homo sapiens, UniProt P15056, V600E)
T1 construct: endogenous C-terminal HiBiT fusion tag on BRAF V600E allele; endogenous in cells; host or cells: A375 clone 1F10 (CRISPR-Cas9 knock-in of the HiBiT tag; parental A375 from ATCC)
Experiment: BRAF HiBiT degradation assay, C-terminal HiBiT-tagged BRAF V600E A375 cells (clone 1F10), Nano-Glo HiBiT Lytic assay
Assay type: cell-based
Conditions: for Dmax: A-375
Description: An A375 cell line expressing a homozygous V600E mutation was purchased from ATCC (Manassas, VA, USA). An A375 clone 1F10 cell line with an endogenous C-terminal HiBiT fusion tag on BRAF V600E allele was generated internally using CRISPR-Cas9 technology and cultured in DMEM, high glucose supplemented with 10% FBS and 1× GlutaMAX. A HCT-116 BRAF−/− cell line overexpressing the C-terminal HiBiT-tagged G466V, G469A, and D594G mutants were generated by lentiviral transduction, externally at Biosettia Inc (San Diego, CA, USA). The stably transfected cells were cultured in RPMI media supplemented with 10% FBS, 1× GlutaMAX, and 0.25 μg/ml puromycin. DMEM medium, RPMI 1640 medium, GlutaMAX, fetal bovine serum (FBS), and puromycin were purchased from Gibco (Grand Island, NY, USA). HCT-116 BRAF−/− cells were purchased from Horizon Discovery (Waterbeach, UK).
The C-terminal HiBiT tagged BRAF A375 cells (monoclonal cell line, cell clone 1F10) were seeded at a density of 10,000 cells/well in 30 μL media (DMEM, high glucose supplemented with 10% FBS and 1× GlutaMAX) in white opaque 384-well plates (Corning #3570) from column 1 to column 23. The wildtype A375 cells were seeded in column 24 at the same cell density in 30 μL media. Cells were incubated at 37° C. with 5% CO2 for 24 h.
Intermediate compound dilution series (5-point, ranging from 5 mM to 0.5 μM, 10-fold dilutions in DMSO) were prepared in a source plate (Beckman Coulter cat. no. 001-16128). Final compound dilution series (11-point, ranging from 1 μM to 0.01 nM, half-log dilutions in DMSO) were stamped into the assay plate (Corning #3570, column 1-11 and 12-22) using the Echo Acoustic Liquid Handler (Beckman Coulter). Each compound was plated in duplicate, and the total volume of compound DMSO solution was 60 nL/well (0.2% final DMSO concentration). DMSO was included in wells A23-L23 and A24-L24. The DMSO-treated HiBiT-tagged samples served as Negative Control (NC) and the DMSO-treated wildtype samples served as Background Control (BC) for the HiBiT assay.
HiBiT signal was measured by a Nano-Glo HiBiT Lytic assay (Promega cat. no. N3050). HiBiT lytic detection reagent (Nano-Glo HiBiT Lytic Buffer with 1:50 Nano-Glo HiBiT Lytic Substrate and 1:100 LgBiT Protein, 40 μL) was added using Bravo. The mixture was incubated at room temperature, in the dark, and with gentle shaking for 10 min. Luminesce units (LU) were read on an EnVision plate reader 2105 (Perkin Elmer).
Percent protein remaining and viability remaining per sample were calculated as follows: […]
% Protein remaining values were plotted as a function of compound concentration. XC50 (DC50) values were determined by fitting curves using the following equation:
For the HiBiT degradation assay, the key parameters reported include: • The dose of compound that produces 50% degradation (DC50 at 50%): • DC50 at 50%: the Fitted X value (Conc.) at Y=50 (response) • Observed Dmax (Obs. Dmax) is the percentage protein degraded at maximal compound effect relative to DMSO-treated control: […]

[1] = A375 (BRAF V600E), DC50 at 50%: fitted conc. at Y=50
[2] = A375 (BRAF V600E), percentage protein degraded at maximal compound effect relative to DMSO

T1 sequence (P15056 whole entry V600E, the tested form may be a part): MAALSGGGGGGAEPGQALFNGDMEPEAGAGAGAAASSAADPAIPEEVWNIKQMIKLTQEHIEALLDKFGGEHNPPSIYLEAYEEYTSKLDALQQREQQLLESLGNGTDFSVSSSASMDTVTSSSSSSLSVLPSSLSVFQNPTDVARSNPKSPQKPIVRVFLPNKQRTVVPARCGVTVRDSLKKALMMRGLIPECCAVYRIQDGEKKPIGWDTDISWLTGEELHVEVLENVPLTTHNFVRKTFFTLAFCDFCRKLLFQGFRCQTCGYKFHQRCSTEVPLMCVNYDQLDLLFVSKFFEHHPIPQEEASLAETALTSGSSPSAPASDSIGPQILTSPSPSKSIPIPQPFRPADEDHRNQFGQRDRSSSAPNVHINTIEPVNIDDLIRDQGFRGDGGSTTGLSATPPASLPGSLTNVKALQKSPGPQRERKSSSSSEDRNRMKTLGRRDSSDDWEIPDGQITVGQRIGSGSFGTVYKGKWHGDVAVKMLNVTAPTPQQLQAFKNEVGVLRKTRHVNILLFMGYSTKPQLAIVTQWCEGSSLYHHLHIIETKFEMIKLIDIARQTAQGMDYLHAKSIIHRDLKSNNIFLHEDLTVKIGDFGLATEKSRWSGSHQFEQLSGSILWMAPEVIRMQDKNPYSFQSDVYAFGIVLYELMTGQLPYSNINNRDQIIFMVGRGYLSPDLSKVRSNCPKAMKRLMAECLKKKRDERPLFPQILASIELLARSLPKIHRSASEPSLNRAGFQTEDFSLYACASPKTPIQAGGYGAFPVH

SMILES	DC50 [1] [nM]	Dmax [2] [%]	DC50 (A375 (BRAF V600E, Class 1), DC50 at 50% degradation) [nM]	Dmax (A375 (BRAF V600E, Class 1), observed Dmax, % protein degraded relative to DMSO control) [%]
CCCS(=O)(=O)Nc1cccc(-c2nc(C(C)(C)C)sc2-c2ccnc(Nc3ccc4c(c3)CCN(C(=O)[C@@H]3CCN(c5ccc(C6CCC(=O)NC6=O)cn5)C3)C4)n2)c1F (mixture of isomers) [Compound 121, N-(3-{2-tert-butyl-5-[2-({2-[(3R)-1-{5-[(3RS)-2,6-dioxopiperidin-3-yl]pyridin-2-yl}pyrrolidine-3-carbonyl]-1,2,3,4-tetrahydroisoquinolin-6-yl}amino)pyrimidin-4-yl]-1,3-thiazol-4-yl}-2-fluorophenyl)propane-1-sulfonamide]	50 to 500	30 to 70		
CCCS(=O)(=O)Nc1cccc(-c2nc(C(C)(C)C)sc2-c2ccnc(NC3CC4(CCN(C[C@H]5CC[C@H](Oc6ccc(C7CCC(=O)NC7=O)cc6)CC5)CC4)C3)n2)c1F (mixture of isomers) [Compound 130, N-[3-(2-tert-butyl-5-{2-[(7-{[(1r,4r)-4-{4-[(3RS)-2,6-dioxopiperidin-3-yl]phenoxy}cyclohexyl]methyl}-7-azaspiro[3.5]nonan-2-yl)amino]pyrimidin-4-yl}-1,3-thiazol-4-yl)-2-fluorophenyl]propane-1-sulfonamide]	> 500	30 to 70		
CCCS(=O)(=O)Nc1cccc(-c2nc(C(C)(C)C)sc2-c2ccnc(NCC3CCN(CC4CCN(c5ccc([C@H]6CCC(=O)NC6=O)cc5)CC4)CC3)n2)c1F [Compound 145, N-[3-(2-tert-butyl-5-{2-[({1-[(1-{4-[(3R)-2,6-dioxopiperidin-3-yl]phenyl}piperidin-4-yl)methyl]piperidin-4-yl}methyl)amino]pyrimidin-4-yl}-1,3-thiazol-4-yl)-2-fluorophenyl]propane-1-sulfonamide]	> 500	30 to 70		
CCCS(=O)(=O)Nc1cccc(-c2nc(C(C)(C)C)sc2-c2ccnc(Nc3ccc(C4CCN(C(=O)CCCC(=O)N[C@H](C(=O)N5C[C@H](O)C[C@H]5C(=O)N[C@@H](C)c5ccc(-c6scnc6C)cc5)C(C)(C)C)CC4)cc3)n2)c1F [Compound 86, (2S,4R)-1-[(2S)-2-[5-(4-{4-[(4-{2-tert-butyl-4-[2-fluoro-3-(propane-1-sulfonamido)phenyl]-1,3-thiazol-5-yl}pyrimidin-2-yl)amino]phenyl}piperidin-1-yl)-5-oxopentanamido]-3,3-dimethylbutanoyl]-4-hydroxy-N-[(1S)-1-[4-(4-methyl-1,3-thiazol-5-yl)phenyl]ethyl]pyrrolidine-2-carboxamide]	50 to 500	30 to 70		
CCCS(=O)(=O)Nc1cccc(-c2nc(C3CCC4(CC3)CCN(CC3CCN(c5ccc(C6CCC(=O)NC6=O)cc5)CC3)CC4)sc2-c2ccnc(N)n2)c1F (racemic) [Compound 256, Rac-N-{3-[5-(2-aminopyrimidin-4-yl)-2-{3-[(1-{4-[(3R)-2,6-dioxopiperidin-3-yl]phenyl}piperidin-4-yl)methyl]-3-azaspiro[5.5]undecan-9-yl}-1,3-thiazol-4-yl]-2-fluorophenyl}propane-1-sulfonamide]			50 to 500	30 to 70

More lines, now with the values ahead:

DC50 [1] [nM]	Dmax [2] [%]	DC50 (A375 (BRAF V600E, Class 1), DC50 at 50% degradation) [nM]	Dmax (A375 (BRAF V600E, Class 1), observed Dmax, % protein degraded relative to DMSO control) [%]	SMILES
< 10	> 70			CCN(C)S(=O)(=O)Nc1cccc(-c2nc(C)sc2-c2ccnc(Nc3ccc(N4CCN(C(=O)CC5CCN(c6ccc(C7CCC(=O)NC7=O)cn6)CC5)CC4)cn3)n2)c1F (racemic) [Compound 39, Rac-(3R)-3-{6-[4-(2-{4-[6-({4-[4-(3-{[ethyl(methyl)sulfamoyl]amino}-2-fluorophenyl)-2-methyl-1,3-thiazol-5-yl]pyrimidin-2-yl}amino)pyridin-3-yl]piperazin-1-yl}-2-oxoethyl)piperidin-1-yl]pyridin-3-yl}piperidine-2,6-dione]
10 to 50	> 70			CCCS(=O)(=O)Nc1cccc(-c2cn(-c3ccc(N4CCN(CC5CCN(c6ccc([C@@H]7CCC(=O)NC7=O)cn6)CC5)CC4)cc3)nc2-c2ccncc2)c1F [Compound 1, N-{3-[1-(4-{4-[(1-{5-[(3S)-2,6-dioxopiperidin-3-yl]pyridin-2-yl}piperidin-4-yl)methyl]piperazin-1-yl}phenyl)-3-(pyridin-4-yl)-1H-pyrazol-4-yl]-2-fluorophenyl}propane-1-sulfonamide]
< 10	30 to 70			CCCS(=O)(=O)Nc1cccc(-c2nc(C(C)(C)C)sc2-c2ccnc(Nc3cnn(C4CCN(CC5CCN(c6ccc(C(=O)NC7CCC(=O)NC7=O)nc6)CC5)CC4)c3)n2)c1F (racemic) [Compound 79, Rac-5-{4-[(4-{4-[(4-{2-tert-butyl-4-[2-fluoro-3-(propane-1-sulfonamido)phenyl]-1,3-thiazol-5-yl}pyrimidin-2-yl)amino]-1H-pyrazol-1-yl}piperidin-1-yl)methyl]piperidin-1-yl}-N-[(3R)-2,6-dioxopiperidin-3-yl]pyridine-2-carboxamide]
10 to 50	> 70			CCCS(=O)(=O)Nc1cccc(-c2nc(C3CCN(C(=O)C4CCN(C(=O)C5CCN(c6ccc([C@@H]7CCC(=O)NC7=O)cc6)CC5)CC4)CC3)sc2-c2ccncc2)c1F [Compound 200, N-[3-(2-{1-[1-(1-{4-[(3S)-2,6-dioxopiperidin-3-yl]phenyl}piperidine-4-carbonyl)piperidine-4-carbonyl]piperidin-4-yl}-5-(pyridin-4-yl)-1,3-thiazol-4-yl)-2-fluorophenyl]propane-1-sulfonamide]
< 10	> 70			CCCS(=O)(=O)Nc1cccc(-c2nc(C3CCN(C(=O)C4(C)CCN(C(=O)C5CCN(c6ccc(C7CCC(=O)NC7=O)cn6)CC5)CC4)CC3)sc2-c2ccncc2)c1F (racemic) [Compound 182, Rac-N-[3-(2-{1-[1-(1-{5-[(3R)-2,6-dioxopiperidin-3-yl]pyridin-2-yl}piperidine-4-carbonyl)-4-methylpiperidine-4-carbonyl]piperidin-4-yl}-5-(pyridin-4-yl)-1,3-thiazol-4-yl)-2-fluorophenyl]propane-1-sulfonamide]
10 to 50	30 to 70			CCCS(=O)(=O)Nc1cccc(-c2nc(C(C)(C)C)sc2-c2ccnc(Nc3cccc(C4CCN(C(=O)CN5CCC(c6ccc(NC7CCC(=O)NC7=O)cc6)CC5)CC4)c3)n2)c1F (racemic) [Compound 103, Rac-N-{3-[2-tert-butyl-5-(2-{[3-(1-{2-[4-(4-{[(3R)-2,6-dioxopiperidin-3-yl]amino}phenyl)piperidin-1-yl]acetyl}piperidin-4-yl)phenyl]amino}pyrimidin-4-yl)-1,3-thiazol-4-yl]-2-fluorophenyl}propane-1-sulfonamide]
10 to 50	30 to 70			CCCS(=O)(=O)Nc1cccc(-c2nc(C(C)(C)C)sc2-c2ccnc(Nc3ccc(C4CCN(C(=O)C5CCN(c6cccc7c6n(C)c(=O)n7C6CCC(=O)NC6=O)CC5)CC4)cc3)n2)c1F (racemic) [Compound 161, Rac-N-(3-{2-tert-butyl-5-[2-({4-[1-(1-{1-[(3R)-2,6-dioxopiperidin-3-yl]-3-methyl-2-oxo-2,3-dihydro-1H-1,3-benzodiazol-4-yl}piperidine-4-carbonyl)piperidin-4-yl]phenyl}amino)pyrimidin-4-yl]-1,3-thiazol-4-yl}-2-fluorophenyl)propane-1-sulfonamide]
10 to 50	30 to 70			CCCS(=O)(=O)Nc1cccc(-c2nc(C(C)(C)C)sc2-c2ccnc(Nc3cccc(OC4CCN(C(=O)[C@H]5CC[C@H](Oc6ccc(C7CCC(=O)NC7=O)cc6)CC5)CC4)c3)n2)c1F (mixture of isomers) [Compound 98, N-{3-[2-tert-butyl-5-(2-{[3-({1-[(1r,4r)-4-{4-[(3RS)-2,6-dioxopiperidin-3-yl]phenoxy}cyclohexanecarbonyl]piperidin-4-yl}oxy)phenyl]amino}pyrimidin-4-yl)-1,3-thiazol-4-yl]-2-fluorophenyl}propane-1-sulfonamide]
